Laboratory results from BindingDB's records for patent US20250215012 (University of Michigan, 2025).

Biological target: DNA damage-binding protein 1/Protein cereblon (Homo sapiens, UniProt Q96SW2)
Assay: Not found
Description: Not found

Chain of DNA damage-binding protein 1/Protein cereblon (Q16531 whole entry): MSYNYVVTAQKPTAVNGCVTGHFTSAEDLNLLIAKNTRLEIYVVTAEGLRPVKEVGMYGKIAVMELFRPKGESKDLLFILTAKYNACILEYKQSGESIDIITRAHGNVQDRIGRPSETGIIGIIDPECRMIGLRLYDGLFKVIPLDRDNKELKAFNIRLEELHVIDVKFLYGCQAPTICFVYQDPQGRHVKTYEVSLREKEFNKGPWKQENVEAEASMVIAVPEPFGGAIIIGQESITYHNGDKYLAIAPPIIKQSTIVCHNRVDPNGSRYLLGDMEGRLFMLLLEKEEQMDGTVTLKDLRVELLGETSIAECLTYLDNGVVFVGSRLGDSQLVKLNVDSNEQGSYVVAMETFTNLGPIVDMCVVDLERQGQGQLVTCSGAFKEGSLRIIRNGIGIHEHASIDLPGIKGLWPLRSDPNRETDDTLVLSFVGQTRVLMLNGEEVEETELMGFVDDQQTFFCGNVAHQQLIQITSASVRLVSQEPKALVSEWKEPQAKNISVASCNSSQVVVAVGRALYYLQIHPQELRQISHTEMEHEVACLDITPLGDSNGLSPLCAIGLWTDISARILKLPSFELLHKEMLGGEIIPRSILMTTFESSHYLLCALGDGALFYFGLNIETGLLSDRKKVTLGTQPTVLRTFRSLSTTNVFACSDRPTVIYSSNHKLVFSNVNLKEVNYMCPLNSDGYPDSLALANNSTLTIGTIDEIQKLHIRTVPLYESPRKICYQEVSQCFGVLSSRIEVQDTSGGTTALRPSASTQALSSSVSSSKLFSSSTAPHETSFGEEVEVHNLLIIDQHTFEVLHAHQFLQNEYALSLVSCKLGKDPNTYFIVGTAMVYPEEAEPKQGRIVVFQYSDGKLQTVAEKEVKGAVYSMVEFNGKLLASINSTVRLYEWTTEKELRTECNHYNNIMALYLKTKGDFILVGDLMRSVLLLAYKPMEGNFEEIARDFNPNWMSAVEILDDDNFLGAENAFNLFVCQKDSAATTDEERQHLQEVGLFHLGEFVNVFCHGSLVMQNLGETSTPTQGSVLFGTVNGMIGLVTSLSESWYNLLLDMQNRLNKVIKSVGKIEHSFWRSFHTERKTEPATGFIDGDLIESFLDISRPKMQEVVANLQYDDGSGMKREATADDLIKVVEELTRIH
Chain of DNA damage-binding protein 1/Protein cereblon (Q96SW2 whole entry): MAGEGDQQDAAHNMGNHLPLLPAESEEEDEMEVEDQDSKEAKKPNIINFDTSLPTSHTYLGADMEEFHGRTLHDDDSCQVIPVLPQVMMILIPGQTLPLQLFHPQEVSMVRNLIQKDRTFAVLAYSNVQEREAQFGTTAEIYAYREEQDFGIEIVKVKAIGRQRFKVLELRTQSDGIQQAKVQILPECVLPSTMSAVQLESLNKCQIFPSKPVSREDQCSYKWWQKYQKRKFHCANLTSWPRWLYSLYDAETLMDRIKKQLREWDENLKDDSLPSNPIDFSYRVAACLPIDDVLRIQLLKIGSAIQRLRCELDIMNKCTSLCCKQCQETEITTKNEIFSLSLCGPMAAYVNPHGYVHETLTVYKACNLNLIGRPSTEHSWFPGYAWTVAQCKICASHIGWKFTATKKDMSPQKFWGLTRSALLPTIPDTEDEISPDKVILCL

SMILES	IC50 [µM]
O=C1CC[C@H](N2Cc3c(ccc4c3OCC43CCN(Cc4ccc5cn[nH]c5c4)CC3(F)F)C2=O)C(=O)N1 (some centres not stated) [US20250215012, Example B33]	0.1 to 0.5
Cn1ncc2ccc(CN3CCC4(COc5c4ccc4c5CN([C@H]5CCC(=O)NC5=O)C4=O)C(F)(F)C3)cc21 (some centres not stated) [US20250215012, Example B34]	0.1 to 0.5
